# Assay results: patent US20210292400A1, “METHODS FOR TREATING, PREVENTING AND DETECTING THE PROGNOSIS OF COLORECTAL CANCER” (priority 2018, published 2021)
# “Also recorded” adds a separate entry of the source.
# Tests used:
# HCT116 cells [1] = assay: Tumor xenograft of siRNA-treated HCT116 cells in nude mice; type: in vivo; conditions: HCT116 cells treated with siRNA, injected subcutaneously and bilaterally; vs control siRNA; 7 days post injection
# Method: FIG. 1H are graphs and images of xenografted tumor growth in nude mice following subcutaneous and bilateral inoculation of HCT116 cells transfected with control siRNA (left side) or ANXA1-specific siRNA (right side). The tumor volumes were measured after 7 days post injection (left panel, n=4). For each mouse, the tumor resulting from ANXA1 siRNA-treated cells was normalized to that arising from control siRNA-treated cells which was designated to 100%. The line represents the average. *p<0.05 (unpaired t-test). Representative tumors are shown on the right panel top, tumors arising from control siRNA treated cells; bottom, tumors arising from ANXA1-specific siRNA treated cells.
# Four-week old nude mice were purchased from Taconic Biosciences (NY, USA). An inoculum of 1×10^7 HCT 116 cells treated with either control or ANXA1-specific siRNA were injected subcutaneously and bilaterally into the nude mice, with control cells injected on the left side and ANXA1-knockdown cells on the right side. On day 7-9 post-injection, the tumor length and width were measured using calipers and tumor volumes were calculated using the following formula: Volume=(width)^2×length/2.
# HT29 cells = assay: Cell proliferation assay, HT29 cells; type: cell-based, human; conditions: cells transfected with siRNA; compared to untreated cells; no Fn
# Method: (§1) Full length ANXA1 was amplified by PCR using primers listed in Table 1 and cloned in to pcDNA™3.1 (+) Mammalian Expression Vector. Plasmid transfection was performed using lipofectamine 2000 (Invitrogen, CA) following the manufacturer instructions. Control siRNA, ANXA1-specific siRNA and CDH1-specific siRNA were purchased from Invitrogen (CA). The siRNA utilized in these experiments included: Negative control: Invitrogen Stealth RNAi siRNA negative control cat number 12935300; Annexin siRNA: Invitrogen stealth siRNA (cat # ANXA1HSS100502) sequence UAACCAUUAUGGCCUUAUGCAAGGC (SEQ ID NO: 1); and E-cadherin siRNA: Invitrogen stealth siRNA (cat # CDH1HSS101669) sequence UUAAUCUCCAGCCAGUUGGCAGUGU (SEQ ID NO: 2). Lipofectamine RNAi MAX (Invitrogen, CA) was used for the siRNA transfection following manufacturer instructions.
# (§2) Cells were seeded in 24 well plates at 5×10^4 cells per well. Cells were untreated or incubated with bacteria at an MOI of 1000:1. Cell numbers were counted at indicated time points using a hemocytometer as previously described (Rubinstein et al. 2013). Each experiment was performed in triplicate and repeated at least three times.
# HCT116 cells [2] = assay: Cell proliferation assay, HCT116 cells; type: cell-based, human; conditions: cells transfected with siRNA; compared to untreated cells; no Fn
# Method: as §1
# Annexin antibodies utilized in these experiments included: Annexin A1 (Thermo Fisher Scientific, cat #71-3400); Annexin A2 (Thermo Fisher Scientific, cat # PA5-27566); Annexin V (Thermo Fisher Scientific, cat # PA5-27872); Annexin A6 (Thermo Fisher Scientific, cat. #720161); and Annexin All (Thermo Fisher Scientific, cat # PA5-68093).
# Cells were seeded in 24 well plates at 5×10^4 cells per well. […] Cell numbers were counted at indicated time points using a hemocytometer as previously described (Rubinstein et al. 2013). […]
# SW480 cells = assay: Cell proliferation assay, SW480 cells; type: cell-based, human; conditions: cells transfected with siRNA; compared to untreated cells; no Fn
# Method: as §1, §2
# β-catenin in 10C cells [3] = assay: Immuno-staining of β-catenin nuclear translocation, 10C cells; type: cell-based, human; conditions: 10C cells transfected with siRNA, then Fn 12230 MOI about 100:1 for 2 hours
# Method: The images were captured with confocal microscope at 800× magnification. −, no bacteria added. Note the increased expression of β-catenin and its nucleus translocation in response to Fn in control siRNA-treated cells, compared to ANXA1 siRNA-treated cells.
# (§3) An aliquot of 1×10^3-1×10^5 cells were seeded into Nunc Lab-Tek II Chamber Slide System (Thermo Fisher Scientific) in 400 μl and allowed to grow for 2-5 days till reaching desired confluency. Following washes with DMEM, the cells were incubated with CFSE-labeled Fn or Alexa Fluor™488-conjugated FadAc, mFadA, and BSA (300 μg/ml) for indicated time periods. Following washes of ten times with DMEM, the cells were fixed in PBS containing 4% paraformaldehyde at room temperature for 15 minutes, followed by neutralization in PBS containing 1% glycine at room temperature for 15 minutes. After blocking with PBS containing 2% skim milk and 0.3% Triton X-100 for 1 hour at 4° C., the cells were incubated overnight at 4° C. with goat anti-human E-cadherin polyclonal antibodies (1:400 dilution, R&D Systems, MN) and rabbit anti-AnnexinA1 polyclonal antibodies (1:400 dilution, Invitrogen) or rabbit anti-β-catenin polyclonal IgG (1:400 dilution, Invitrogen) in blocking solution. […]
# [4] = tested on: F. nucleatum 12230 attachment and invasion to 10C cells; assay: Cell culture attachment and invasion assay of F. nucleatum 12230 to 10C cells; type: cell-based, human; conditions: 10C transfected with siRNA
# Method: Fn attachment and invasion to the untreated SB cells were designated as 100%, respectively; all other values were expressed as relative to those obtained with untreated SB. Data are mean values±SEM. *p<0.05, ** p<0.01 and *** p<0.001 (one-way ANOVA).
# Data are mean values±SD. The experiment was performed in triplicates and repeated twice. *p<0.05 (student's t-test).
# The assay was performed as previously described (Han et al. 2000). Briefly, host cells were seeded in 24 well plates and grown until 80% confluency. Bacteria were added at an MOI 50:1 and incubated for 1 hour at 37° C. in 5% CO2. Following washes with PBS and lysis with water for 20 minutes, serial dilutions of the lysates were plated onto blood agar plates to enumerate the viable bacterial counts. For the invasion assay, bacteria were incubated with the host cells for 3 hours followed by treatment with 300 μg/ml gentamicin and 200 μg/ml metronidazole for 1 hour at 37° C. Following washes with PBS, the cells were lysed with water and intracellular bacterial counts were determined as described above. The levels of attachment and invasion were expressed as the percentage of bacteria recovered following cell lysis relative to the total number of bacteria initially added. Each experiment was performed in triplicate and repeated at least three times.
# [5] = tested on: β-catenin in HCT116 cells; assay: Flow cytometry of β-catenin expression after F. nucleatum incubation, HCT116 cells; type: cell-based, human; conditions: HCT116 cells transfected with siRNA, then Fn 12230 MOI approximately 20:1
# Method: (§4) FIG. 3G are graphs of the results of flow cytometry analysis of β-catenin expression in 10C, HCT 116, and DLD1 cells following transfection with control siRNA (clear bars) or ANXA1-specific siRNA (solid bars) and subsequent incubation with F. nucleatum 12230 at MOI of approximately 20:1 for indicated time periods. The geometric means of cells treated with control siRNA at time 0 was designated as 1. Data are mean values±SD. *** p<0.001. The experiment was performed in duplicates or triplicates and repeated 1-3 times. **p<0.01, ***p<0.001 (two-way ANOVA).
# (§5) Approximately a total of 2×10^5 cells were incubated with Fn or purified FadA in 35 mm dish at 37° C. for indicated time periods. After washing with PBS, the cells were incubated with enzyme-free cell dissociation buffer (Thermo Fisher Scientific) for 5 min at 37° C. followed by addition of 1 ml DMEM. The cells were collected and centrifuged at 500 g for 3 minutes. The cell pellet was fixed with 75% cold ethanol and kept at −20° C. The pellet was centrifuged again at 2500 g for 10 minutes and washed with phosphate citrate buffer (200 mM Na2HPO4, 100 mM citric acid, pH 7.4), followed by blocking with PBS containing 2% skim milk at room temperature for 1 hour. […] After washing the cells with PBS, the flow cytometric data were acquired by a BD LSR II flow cytometer and analyzed using Flow Jo software (Tree Star, San Carlos, Calif.).
# DLD1 cells = assay: Cell proliferation assay, DLD1 cells; type: cell-based, human; conditions: cells transfected with siRNA; compared to untreated cells; no Fn
# Method: as §1, §2
# AA/C1/SB (SB) cells = assay: Cell proliferation assay, non-tumorigenic SB cells; type: cell-based, human; conditions: cells transfected with siRNA; compared to untreated cells; no Fn
# Method: as §1, §2
# AA/C1/SB/10C (10C) cells = assay: Cell proliferation assay, 10C cells; type: cell-based, human; conditions: cells transfected with siRNA; compared to untreated cells; no Fn
# Method: as §1, §2
# β-catenin in 10C cells [6] = assay: Flow cytometry of β-catenin expression after F. nucleatum incubation, 10C cells; type: cell-based, human; conditions: 10C cells transfected with siRNA, then Fn 12230 MOI approximately 20:1
# Method: as §4, §5
# β-catenin in DLD1 cells [7] = assay: β-catenin nucleus translocation, DLD1 cells; type: cell-based, human; conditions: Annexin A1 knocked down by siRNA
# Method: as §3, with “solution. After washing three times with PBS containing 0.3% Triton X-100, the cells were incubated with Cy3-conjugated donkey anti-goat IgG (1:1000 dilution, Jackson ImmunoResearch, West Grove, Pa.) and Alexa Fluor®680-conjugated donkey anti-rabbit IgG (1:1000 dilution, Invitrogen), washed, and covered in mounting medium containing DAPI (Vector Laboratories, CA, USA).” for “solution.”
# β-catenin in DLD1 cells [8] = assay: Flow cytometry of β-catenin expression after F. nucleatum incubation, DLD1 cells; type: cell-based, human; conditions: DLD1 cells transfected with siRNA, then Fn 12230 MOI approximately 20:1
# Method: as §4, §5
# RKO cells = assay: Cell proliferation assay, RKO cells; type: cell-based, human; conditions: cells transfected with siRNA; RKO expressed the least Annexin A1
# Method: as §1, §2
substance,measurement,setting,value
"ANXA1-specific siRNA: Invitrogen stealth siRNA cat # ANXA1HSS100502, sequence UAACCAUUAUGGCCUUAUGCAAGGC (SEQ ID NO: 1) (UAACCAUUAUGGCCUUAUGCAAGGC; commercial Invitrogen Stealth siRNA, chemistry not given here)",xenografted tumor growth (tumor volume),HCT116 cells [1],significantly attenuated tumor growth
same,growth of HT29 cells,HT29 cells,inhibited the growth
same,growth of HCT116 cells,HCT116 cells [2],inhibited the growth
same,growth of SW480 cells,SW480 cells,inhibited the growth
same,nuclear translocation of β-catenin,β-catenin in 10C cells [3],abolished; also recorded: inhibited
same,Fn binding (attachment) to 10C cells,"[4]; Fn 12230 MOI 50:1, 1 hour",effectively reduced
same,Fn invasion of 10C cells,"[4]; Fn 12230 MOI 50:1, 3 hours",effectively reduced
same,F. nucleatum-mediated activation of β-catenin expression,[5],abolished
same,growth of DLD1 cells,DLD1 cells,inhibited the growth
same,growth of non-tumorigenic SB cells,AA/C1/SB (SB) cells,without affecting
same,growth of 10C cells,AA/C1/SB/10C (10C) cells,inhibited the growth
same,F. nucleatum-mediated activation of β-catenin expression,β-catenin in 10C cells [6],abolished
same,nucleus translocation of β-catenin,β-catenin in DLD1 cells [7],abolished
same,F. nucleatum-mediated activation of β-catenin expression,β-catenin in DLD1 cells [8],abolished
same,growth of RKO cells,RKO cells,without affecting
